Test results from patent publication US9650369B2, “Anti-migration and anti-invasion thiazole analogs for treatment of cellular proliferative disease” (XAVIER UNIVERSITY OF LOUISIANA, priority 2012, dated 2017).
pIC50: −log10 of the molar value.

Experiments:
[1] = cytotoxicity of additional thiazole compounds (Table 3); assay type: cell-based; details: cell line not given
Excerpt: (§1) The additional thiazole compounds were synthesized and tested for antimigration efficacy and cytotoxicity, with results shown in TABLE 3.

[2] = antimigration efficacy of additional thiazole compounds (Table 3); assay type: cell-based; details: cell line not given; read-out: IC50 (anti-migration)
Excerpt: as §1

pIC50 [2]	SMILES	Cytotoxicity (Survival at 1 μM) [1] [%]
< 4.30	COc1cccc(C(=O)N=c2scc(-c3cc(OC)c(OC)c(OC)c3)n2C)c1 [Compound 15m, 3-Methoxy-N-(3-methyl-4-(3,4,5-trimethoxyphenyl)thiazol-2(3H)-ylidene)benzamide]	103.5
5.96	Cc1ccc(-c2cnc(N(C)C(=O)c3ccccc3)s2)cc1 [Compound 16f, N-Methyl-N-(5-(p-tolyl)thiazol-2-yl)benzamide]	59.3
< 4.60	COc1ccc(C(=O)Nc2nc(-c3cc(OC)c(OC)c(OC)c3)cs2)cc1 [Compound 14k, 4-Methoxy-N-(4-(3,4,5-trimethoxyphenyl)thiazol-2-yl)benzamide]	93.8
5.02	O=C(Nc1nc(-c2ccc(Br)cc2)cs1)c1ccccc1 [Compound 14d, N-(4-(4-Bromophenyl)thiazol-2-yl)benzamide]	82.2
7.49	CCCN(C(=O)c1ccccc1)c1nc(-c2ccccc2)cs1 [Compound 8b, N-(4-Phenylthiazol-2-yl)-N-propylbenzamide]	116.0
5.25	CCn1c(-c2ccc(C)cc2C)csc1=NC(=O)c1ccccc1 [Compound 5l, N-(4-(2,4-Dimethylphenyl)-3-ethylthiazol-2(3H)-ylidene)benzamide]	141.8
	C#CCN(C(=O)c1ccccc1)c1nc(-c2ccc(C)cc2C)cs1 [Compound 6, N-(4-(2,4-Dimethylphenyl)thiazol-2-yl)-N-(prop-2-yn-1-yl)benzamide]	106.4
4.96	Cc1ccc(-c2csc(NS(=O)(=O)c3ccccc3)n2)c(C)c1 [Compound 10, N-(4-(2,4-Dimethylphenyl)thiazol-2-yl)benzenesulfonamide]	137.4
6.90	Cn1c(-c2ccc(Br)cc2)csc1=NC(=O)c1ccccc1 [Compound 15d, N-(4-(4-Bromophenyl)-3-methylthiazol-2(3H)-ylidene)benzamide]	59.3
< 4.60	COc1ccccc1C(=O)N(C)c1nc(-c2cc(OC)c(OC)c(OC)c2)cs1 [Compound 16l, 2-Methoxy-N-methyl-N-(4-(3,4,5-trimethoxyphenyl)thiazol-2-yl)benzamide]	109.3
6.05	CCn1c(-c2ccccc2)csc1=NC(=O)c1ccccc1 [Compound 8a, N-(4-phenyl-3-ethylthiazol-2(3H)-ylidene)benzamide]	128.9
< 4.60	Cc1ccc(-c2cn(C)/c(=N\C(=O)c3ccccc3)s2)cc1 [Compound 15j, N-(3-Methyl-5-(p-toyl)thiazol-2(3H)-ylidene)benzamide]	112.6
6.51	COc1ccc(C(=O)N(C)c2nc(-c3cc(OC)c(OC)c(OC)c3)cs2)cc1 [Compound 16g, 4-Methoxy-N-methyl-N-(4-(3,4,5-trimethoxyphenyl)thiazol-2-yl)benzamide]	100.0
4.82	Cc1csc(=NC(=O)c2ccccc2)n1C [Compound 15a, N-(3,4-Dimethylthiazol-2(3H)-ylidene)benzamide]	102.6
7.61	C=CCn1c(-c2ccccc2)csc1=NC(=O)c1ccccc1 [Compound 7c, N-(3-Allyl-4-phenylthiazol-2(3H)-ylidene)benzamide]	64.8
6.52	Cn1c(-c2cccc(Br)c2)csc1=NC(=O)c1ccccc1 [Compound 15c, N-(4-(3-Bromophenyl)-3-methylthiazol-2(3H)-ylidene)benzamide]	94.4
< 4.30	COc1ccc(C(=O)Nc2nc(-c3cc(OC)c(OC)c(OC)c3)cs2)c(OC)c1 [Compound 14n, 2,4-Dimethoxy-N-(4-(3,4,5-trimethoxyphenyl)thiazol-2-yl)benzamide]	93.8
6.44	Cn1c(-c2cccc(Cl)c2)csc1=NC(=O)c1ccccc1 [Compound 15e, N-(4-(3-Chlorophenyl)-3-methylthiazol-2(3H)-ylidene)benzamide]	35.2
6.36	CCCn1c(-c2ccccc2)csc1=NC(=O)c1ccccc1 [Compound 7b, N-(4-Phenyl-3-propylthiazol-2(3H)-ylidene)benzamide]	100.0
5.00	O=C(Nc1nc(-c2cccc(Br)c2)cs1)c1ccccc1 [Compound 14c, N-(4-(3-Bromophenyl)thiazol-2-yl)benzamide]	78.0

pIC50 [2]	SMILES	Cytotoxicity (Survival at 1 μM) [1] [%]
5.79	Cc1sc(N(C)C(=O)c2ccccc2)nc1-c1ccc(F)cc1 [Compound 16e, N-(4-(4-Fluorophenyl)-5-methylthiazol-2-yl)-N-methylbenzamide]	107.6
7.38	CN(C(=O)c1ccccc1)c1nc(-c2ccccc2Cl)cs1 [Compound 16a, N-(4-(2-Chlorophenyl)thiazol-2-yl)-N-methylbenzamide]	88.9
6.47	O=C(Nc1nc(-c2cc(C(F)(F)F)cc(C(F)(F)F)c2)cs1)c1ccccc1 [Compound 14f, N-(4-(3,5-Bis(trifluoromethyl)phenyl)thiazol-2-yl)benzamide]	85.8
6.36	CN(C(=O)c1ccccc1)c1nc(-c2cccc(Br)c2)cs1 [Compound 16b, N-(4-(3-Bromophenyl)thiazol-2-yl)-N-methylbenzamide]	104.4
5.10	COc1ccc(C(=O)N=c2scc(-c3cc(OC)c(OC)c(OC)c3)n2C)cc1 [Compound 15k, 4-Methoxy-N-(3-methyl-4-(3,4,5-trimethoxyphenyl)thiazol-2(3H)-ylidene)benzamide]	105.6
< 4.60	COc1ccc(C(=O)N(C)c2nc(-c3cc(OC)c(OC)c(OC)c3)cs2)cc1OC [Compound 16h, 3,4-Dimethoxy-N-methyl-N-(4-(3,4,5-trimethoxyphenyl)thiazol-2-yl)benzamide]	101.9
< 4.60	COc1ccc(C(=O)Nc2nc(-c3cc(OC)c(OC)c(OC)c3)cs2)cc1OC [Compound 14m, 3,4-Dimethoxy-N-(4-(3,4,5-trimethoxyphenyl)thiazol-2-yl)benzamide]	87.3
4.82	COc1cc(-c2csc(NC(=O)c3cccc(OC)c3OC)n2)cc(OC)c1OC [Compound 14p, 2,3-Dimethoxy-N-(4-(3,4,5-trimethoxyphenyl)thiazol-2-yl)benzamide]	90.1
6.62	C=CCn1c(-c2ccc(C)cc2C)csc1=NC(=O)c1ccccc1 [Compound 5q, N-(3-Allyl-4-(2,4-dimethylphenyl)thiazol-2(3H)-ylidene)benzamide]	115.3
5.71	COc1cc(C(=O)/N=c2/scc(-c3cc(OC)c(OC)c(OC)c3)n2C)cc(OC)c1OC [Compound 15o, 3,4,5-Trimethoxy-N-(3-methyl-4-(3,4,5-trimethoxyphenyl)thiazol-2(3H)-ylidene) benzamide]	81.5
6.07	Cc1sc(=NC(=O)c2ccccc2)n(C)c1-c1ccc(F)cc1 [Compound 15i, N-(4-(4-Fluorophenyl)-3,5-dimethylthiazol-2(3H)-ylidene)benzamide]	83.8
7.49	CCCCCCCCCCCCn1c(-c2ccc(C)cc2C)csc1=NC(=O)c1ccccc1 [Compound 5p, N-(4-(2,4-Dimethylphenyl)-3-dodecylthiazol-2(3H)-ylidene)benzamide]	109.5
6.51	Cc1ccc(-c2cnc(NC(=O)c3ccccc3)s2)cc1 [Compound 14j, N-(5-(p-Tolyl)thiazol-2-yl)benzamide]	55.6
5.99	COc1cc(C(=O)Nc2nc(-c3cc(OC)c(OC)c(OC)c3)cs2)cc(OC)c1OC [Compound 14o, 3,4,5-Trimethoxy-N-(4-(3,4,5-trimethoxyphenyl)thiazol-2-yl)benzamide]	77.6
5.07	COc1ccccc1C(=O)Nc1nc(-c2cc(OC)c(OC)c(OC)c2)cs1 [Compound 14q, 2-Methoxy-N-(4-(3,4,5-trimethoxyphenyl)thiazol-2-yl)benzamide]	103.7
6.50	CN(C(=O)c1ccccc1)c1nc(-c2ccc(Br)cc2)cs1 [Compound 16c, N-(4-(4-Bromophenyl)thiazol-2-yl)-N-methylbenzamide]	65.4
6.19	COc1cccc(C(=O)N(C)c2nc(-c3cc(OC)c(OC)c(OC)c3)cs2)c1 [Compound 16m, 3-Methoxy-N-methyl-N-(4-(3,4,5-trimethoxyphenyl)thiazol-2-yl)benzamide]	88.9
< 4.60	Cc1ccc(-c2csc(N(C)S(=O)(=O)c3ccccc3)n2)c(C)c1 [Compound 12, N-(4-(2,4-Dimethylphenyl)thiazol-2-yl)-N-methylbenzenesulfonamide]	116.7
5.84	Cc1ccc(-c2csc(=NS(=O)(=O)c3ccccc3)n2C)c(C)c1 [Compound 11, N-(4-(2,4-Dimethylphenyl)-3-methylthiazol-2(3H)-ylidene)benzenesulfonamide]	92.4
6.71	Cc1sc(=NC(=O)c2ccccc2)n(C)c1-c1ccccc1 [Compound 15h, N-(3,5-Dimethyl-4-phenylthiazol-2(3H)-ylidene)benzamide]	68.4

SMILES	pIC50 [2]	Cytotoxicity (Survival at 1 μM) [1] [%]
CCCCCCn1c(-c2ccc(C)cc2C)csc1=NC(=O)c1ccccc1 [Compound 5o, N-(4-(2,4-Dimethylphenyl)-3-hexylthiazol-2(3H)-ylidene)benzamide]	7.06	90.0
